Publication PMC5428509, “Irreversible inhibition of BTK kinase by a novel highly selective inhibitor CHMFL-BTK-11 suppresses inflammatory response in rheumatoid arthritis model” (Scientific Reports, 2017)

Experiments:
Assay in all cases: biochemical
Set-up in all cases: KinomeScan competition binding panel (DiscoveRx), percent of control at 1 uM
Details in all cases: read-out: Percent Control
CAMK2D = CAMK2D (Homo sapiens, UniProt Q13557)
How it was run: (§1)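 Selectivity profiled across 456 kinases/mutants by KinomeScan binding technology.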

PIP5K2C = target: T1, PIP5K2C (Homo sapiens, UniProt Q8TBX8)
T1 construct: gene PIP4K2C
How it was run: as §1

ERK3 = target: T2, ERK3 (Homo sapiens, UniProt Q16659)
T2 construct: gene MAPK6
How it was run: as §1

MAP3K3 = MAP3K3 (Homo sapiens, UniProt Q99759)
How it was run: as §1

MST1 = target: T3, MST1 (Homo sapiens, UniProt Q13043)
T3 construct: gene STK4
T3 sequence (Q13043 whole entry): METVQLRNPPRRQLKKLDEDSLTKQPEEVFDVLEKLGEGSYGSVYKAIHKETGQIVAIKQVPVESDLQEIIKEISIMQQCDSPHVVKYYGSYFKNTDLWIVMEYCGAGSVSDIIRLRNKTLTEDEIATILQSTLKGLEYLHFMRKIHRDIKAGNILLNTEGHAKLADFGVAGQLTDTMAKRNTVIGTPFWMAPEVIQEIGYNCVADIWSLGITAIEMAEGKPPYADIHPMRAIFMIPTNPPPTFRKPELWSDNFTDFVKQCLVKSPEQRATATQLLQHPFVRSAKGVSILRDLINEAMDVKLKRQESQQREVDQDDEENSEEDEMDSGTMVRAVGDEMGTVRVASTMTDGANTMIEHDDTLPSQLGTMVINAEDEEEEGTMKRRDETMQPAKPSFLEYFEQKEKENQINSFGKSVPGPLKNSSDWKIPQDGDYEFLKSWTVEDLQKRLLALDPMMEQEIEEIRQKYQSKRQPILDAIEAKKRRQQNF
How it was run: as §1

[1] = target: T4, ABL1(E255K)-phosphorylated (Homo sapiens, UniProt P00519, E255K)
T4 construct: phosphorylated
How it was run: as §1

CHEK2 = CHEK2 (Homo sapiens, UniProt O96017)
How it was run: as §1

SIK = target: T5, SIK (Homo sapiens, UniProt P57059)
T5 construct: gene SIK1
T5 sequence (P57059 whole entry): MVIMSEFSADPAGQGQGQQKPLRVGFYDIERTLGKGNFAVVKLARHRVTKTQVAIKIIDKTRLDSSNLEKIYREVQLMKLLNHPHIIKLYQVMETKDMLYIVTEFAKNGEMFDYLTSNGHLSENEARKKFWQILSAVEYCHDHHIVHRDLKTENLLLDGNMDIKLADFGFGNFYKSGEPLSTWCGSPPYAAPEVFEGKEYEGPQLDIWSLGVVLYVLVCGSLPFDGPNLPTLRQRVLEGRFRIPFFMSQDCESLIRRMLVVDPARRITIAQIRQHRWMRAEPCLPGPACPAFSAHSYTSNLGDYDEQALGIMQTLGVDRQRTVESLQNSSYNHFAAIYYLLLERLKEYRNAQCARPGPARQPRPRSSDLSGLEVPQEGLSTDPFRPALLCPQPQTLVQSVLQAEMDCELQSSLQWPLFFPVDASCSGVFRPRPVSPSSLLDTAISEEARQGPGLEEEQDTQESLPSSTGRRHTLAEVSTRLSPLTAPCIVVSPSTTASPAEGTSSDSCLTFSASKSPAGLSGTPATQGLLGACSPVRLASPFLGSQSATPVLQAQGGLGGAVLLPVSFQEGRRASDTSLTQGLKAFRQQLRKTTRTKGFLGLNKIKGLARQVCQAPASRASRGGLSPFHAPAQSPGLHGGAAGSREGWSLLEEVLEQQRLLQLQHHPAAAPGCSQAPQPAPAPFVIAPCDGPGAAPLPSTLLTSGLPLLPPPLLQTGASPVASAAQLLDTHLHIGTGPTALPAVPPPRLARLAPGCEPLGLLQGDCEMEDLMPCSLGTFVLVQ
How it was run: as §1

STK16 = STK16 (Homo sapiens, UniProt O75716)
Sequence of STK16 (O75716 whole entry): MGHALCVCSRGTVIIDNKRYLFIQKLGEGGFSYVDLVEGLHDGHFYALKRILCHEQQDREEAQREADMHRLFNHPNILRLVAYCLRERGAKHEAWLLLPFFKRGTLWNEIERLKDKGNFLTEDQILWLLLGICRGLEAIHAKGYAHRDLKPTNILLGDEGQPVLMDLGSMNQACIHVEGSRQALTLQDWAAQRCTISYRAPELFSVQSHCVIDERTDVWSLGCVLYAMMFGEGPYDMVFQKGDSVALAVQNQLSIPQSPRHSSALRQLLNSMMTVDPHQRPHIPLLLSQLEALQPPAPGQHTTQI
How it was run: as §1

HUNK = HUNK (Homo sapiens, UniProt P57058)
How it was run: as §1

MARK1 = MARK1 (Homo sapiens, UniProt Q9P0L2)
How it was run: as §1

PIK3C2B = PIK3C2B (Homo sapiens, UniProt O00750)
How it was run: as §1

NEK10 = NEK10 (Homo sapiens, UniProt Q6ZWH5)
How it was run: as §1

NEK4 = NEK4 (Homo sapiens, UniProt P51957)
How it was run: as §1

[2] = target: T6, ABL1(F317L)-phosphorylated (Homo sapiens, UniProt P00519, F317L)
T6 construct: phosphorylated
How it was run: as §1

PRKD1 = PRKD1 (Homo sapiens, UniProt Q15139)
How it was run: as §1

DLK = target: T7, DLK (Homo sapiens, UniProt Q12852)
T7 construct: gene MAP3K12
T7 sequence (Q12852 whole entry): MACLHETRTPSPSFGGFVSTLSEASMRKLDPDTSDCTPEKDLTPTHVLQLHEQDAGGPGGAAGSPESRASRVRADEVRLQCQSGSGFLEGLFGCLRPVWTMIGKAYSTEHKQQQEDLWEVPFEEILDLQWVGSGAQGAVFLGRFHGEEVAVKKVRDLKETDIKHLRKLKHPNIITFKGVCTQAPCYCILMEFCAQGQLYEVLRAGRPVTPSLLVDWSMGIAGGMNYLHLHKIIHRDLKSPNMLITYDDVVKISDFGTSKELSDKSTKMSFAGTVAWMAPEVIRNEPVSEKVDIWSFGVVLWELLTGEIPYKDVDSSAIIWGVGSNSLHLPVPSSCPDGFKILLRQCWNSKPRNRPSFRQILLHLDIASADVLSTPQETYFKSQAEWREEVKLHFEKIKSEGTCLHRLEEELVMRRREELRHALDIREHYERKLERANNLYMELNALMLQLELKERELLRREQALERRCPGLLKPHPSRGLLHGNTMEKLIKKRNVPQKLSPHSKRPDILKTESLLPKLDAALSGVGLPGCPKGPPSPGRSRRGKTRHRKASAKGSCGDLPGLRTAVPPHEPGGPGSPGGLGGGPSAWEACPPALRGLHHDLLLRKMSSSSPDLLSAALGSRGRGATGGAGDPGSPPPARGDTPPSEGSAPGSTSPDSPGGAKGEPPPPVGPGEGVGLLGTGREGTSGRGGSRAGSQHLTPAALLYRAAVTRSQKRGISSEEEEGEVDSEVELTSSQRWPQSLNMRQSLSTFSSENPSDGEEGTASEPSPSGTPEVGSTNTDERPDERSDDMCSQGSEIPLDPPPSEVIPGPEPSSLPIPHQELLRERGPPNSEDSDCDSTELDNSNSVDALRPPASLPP
How it was run: as §1

LYN = LYN (Homo sapiens, UniProt P07948)
Sequence of LYN (P07948 whole entry): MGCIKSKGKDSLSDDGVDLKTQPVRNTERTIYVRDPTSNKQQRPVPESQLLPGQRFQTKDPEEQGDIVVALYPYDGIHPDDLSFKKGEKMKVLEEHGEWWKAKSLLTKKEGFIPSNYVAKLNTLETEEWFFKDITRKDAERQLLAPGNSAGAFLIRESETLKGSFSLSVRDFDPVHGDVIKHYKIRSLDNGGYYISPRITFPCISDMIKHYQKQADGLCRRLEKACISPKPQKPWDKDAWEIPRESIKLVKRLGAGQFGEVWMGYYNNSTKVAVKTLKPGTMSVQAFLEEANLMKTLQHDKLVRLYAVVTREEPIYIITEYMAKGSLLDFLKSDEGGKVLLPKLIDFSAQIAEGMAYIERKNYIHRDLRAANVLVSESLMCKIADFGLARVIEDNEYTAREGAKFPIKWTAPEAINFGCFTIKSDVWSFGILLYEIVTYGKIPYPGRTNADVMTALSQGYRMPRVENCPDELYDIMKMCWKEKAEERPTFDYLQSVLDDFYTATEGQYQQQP
How it was run: as §1

DYRK1A = DYRK1A (Homo sapiens, UniProt Q13627)
How it was run: as §1

GRK4 = GRK4 (Homo sapiens, UniProt P32298)
Sequence of GRK4 (P32298 whole entry): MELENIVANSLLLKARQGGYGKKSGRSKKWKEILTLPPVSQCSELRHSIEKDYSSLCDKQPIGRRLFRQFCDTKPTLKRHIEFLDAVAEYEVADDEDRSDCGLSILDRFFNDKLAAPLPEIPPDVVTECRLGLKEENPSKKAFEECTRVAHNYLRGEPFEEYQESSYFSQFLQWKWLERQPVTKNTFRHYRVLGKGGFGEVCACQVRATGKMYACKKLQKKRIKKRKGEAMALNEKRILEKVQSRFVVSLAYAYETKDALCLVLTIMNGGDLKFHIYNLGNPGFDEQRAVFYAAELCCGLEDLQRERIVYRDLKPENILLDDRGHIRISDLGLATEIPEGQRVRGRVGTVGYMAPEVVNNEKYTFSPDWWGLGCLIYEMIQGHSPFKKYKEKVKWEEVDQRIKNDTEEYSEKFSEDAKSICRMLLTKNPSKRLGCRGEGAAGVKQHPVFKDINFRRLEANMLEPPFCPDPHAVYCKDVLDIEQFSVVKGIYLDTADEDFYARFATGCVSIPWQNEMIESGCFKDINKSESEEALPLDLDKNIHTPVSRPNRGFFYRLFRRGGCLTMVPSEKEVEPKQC
How it was run: as §1

ERBB4 = ERBB4 (Homo sapiens, UniProt Q15303)
How it was run: as §1

[3] = target: T8, JAK1(JH2domain-pseudokinase) (Homo sapiens, UniProt P23458)
T8 construct: JH2domain-pseudokinase
How it was run: as §1

SGK3 = SGK3 (Homo sapiens, UniProt Q96BR1)
How it was run: as §1

LZK = target: T9, LZK (Homo sapiens, UniProt O43283)
T9 construct: gene MAP3K13
How it was run: as §1

IKK-epsilon = target: T10, IKK-epsilon (Homo sapiens, UniProt Q14164)
T10 construct: gene IKBKE
T10 sequence (Q14164 whole entry): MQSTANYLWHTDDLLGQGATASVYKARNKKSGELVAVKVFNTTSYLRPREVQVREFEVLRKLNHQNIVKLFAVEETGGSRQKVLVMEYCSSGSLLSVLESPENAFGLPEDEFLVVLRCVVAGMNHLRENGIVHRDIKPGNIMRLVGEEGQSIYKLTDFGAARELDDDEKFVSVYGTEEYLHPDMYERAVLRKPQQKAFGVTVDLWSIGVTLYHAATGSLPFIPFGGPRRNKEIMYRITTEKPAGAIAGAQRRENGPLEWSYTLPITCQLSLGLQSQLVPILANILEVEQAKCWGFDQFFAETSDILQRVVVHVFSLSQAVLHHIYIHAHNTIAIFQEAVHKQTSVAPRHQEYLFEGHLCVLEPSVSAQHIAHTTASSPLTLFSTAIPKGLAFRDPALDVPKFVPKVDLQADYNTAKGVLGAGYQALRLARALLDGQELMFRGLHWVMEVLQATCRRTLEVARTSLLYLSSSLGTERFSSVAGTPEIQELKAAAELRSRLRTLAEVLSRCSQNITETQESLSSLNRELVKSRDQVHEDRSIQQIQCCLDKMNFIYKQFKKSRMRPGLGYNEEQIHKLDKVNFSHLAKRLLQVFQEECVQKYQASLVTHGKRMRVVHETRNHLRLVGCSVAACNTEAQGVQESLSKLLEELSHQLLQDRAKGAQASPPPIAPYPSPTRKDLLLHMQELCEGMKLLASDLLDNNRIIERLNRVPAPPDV
How it was run: as §1

Sequence of CAMK2D (Q13557 whole entry): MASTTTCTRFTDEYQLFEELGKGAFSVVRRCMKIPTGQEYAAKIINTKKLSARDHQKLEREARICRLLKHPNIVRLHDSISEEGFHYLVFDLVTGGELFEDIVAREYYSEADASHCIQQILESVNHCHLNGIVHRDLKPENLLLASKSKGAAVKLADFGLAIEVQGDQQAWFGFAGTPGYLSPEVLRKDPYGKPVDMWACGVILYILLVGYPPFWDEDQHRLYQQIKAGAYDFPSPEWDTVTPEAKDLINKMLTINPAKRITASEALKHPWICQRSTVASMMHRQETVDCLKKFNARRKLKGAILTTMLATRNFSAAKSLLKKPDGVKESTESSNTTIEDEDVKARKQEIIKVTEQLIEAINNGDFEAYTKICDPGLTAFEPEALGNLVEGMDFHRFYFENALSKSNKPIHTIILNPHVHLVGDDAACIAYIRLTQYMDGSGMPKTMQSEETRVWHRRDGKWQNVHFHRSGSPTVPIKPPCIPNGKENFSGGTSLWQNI

Structure (SMILES): C=CC(=O)Nc1cc(-n2c(=O)ccc3cnc4ccc(-n5cccn5)cc4c32)ccc1C [CHMFL-BTK-11]
- remaining binding at 1 µM (CAMK2D): 80%
- remaining binding at 1 µM (PIP5K2C): 90%
- remaining binding at 1 µM (ERK3): 100%
- remaining binding at 1 µM (MAP3K3): 100%
- remaining binding at 1 µM (MST1): 100%
- remaining binding at 1 µM [1]: 92%
- remaining binding at 1 µM (CHEK2): 100%
- remaining binding at 1 µM (SIK): 100%
- remaining binding at 1 µM (STK16): 91%
- remaining binding at 1 µM (HUNK): 86%
- remaining binding at 1 µM (MARK1): 82%
- remaining binding at 1 µM (PIK3C2B): 100%
- remaining binding at 1 µM (NEK10): 97%
- remaining binding at 1 µM (NEK4): 100%
- remaining binding at 1 µM [2]: 100%
- remaining binding at 1 µM (PRKD1): 94%
- remaining binding at 1 µM (DLK): 100%
- remaining binding at 1 µM (LYN): 94%
- remaining binding at 1 µM (DYRK1A): 100%
- remaining binding at 1 µM (GRK4): 94%
- remaining binding at 1 µM (ERBB4): 91%
- remaining binding at 1 µM [3]: 82%
- remaining binding at 1 µM (SGK3): 86%
- remaining binding at 1 µM (LZK): 100%
- remaining binding at 1 µM (IKK-epsilon): 96%
